Results reported in patent US20140364431A1, “Quinoline and cinnoline derivatives and their applications” (Shenyang Pharmaceutical University, priority 2011, published 2014).
Values after ≈ are worked out from the molar mass of the structure shown. Like-named read-outs stand apart in the source and are kept apart here.

How the values were obtained:
[1] = tested on: human tumor cell lines (such as human lung cancer cells, human gastric cancer cells, etc.); conditions: cited from earlier work
[2] = tested on: MKN-45 (human gastric carcinoma cell); test: In vitro anti-tumor cellular activity (MTT), MKN-45; assay type: cell-based; conditions: for IC50: Homo sapiens, read-out: MKN-45 IC50
[3] = target: T1, c-Met (His-tagged recombinant human Met (Amino acids 974-ends)) (Homo sapiens, UniProt P08581); test: c-Met kinase assay (ELISA); assay type: biochemical; conditions: 50 pM c-Met, 5 μM ATP, 20 min
T1 construct: His-tagged recombinant human Met (Amino acids 974-ends); His; host or cells: baculovirus expression
Description: c-Met kinase activity was measured with an ELISA reader.
The reaction mixture was removed by washing with 0.2 μg/mL conjugated horseradish peroxidase (HRP) monoclonal antibody specific for phosphotyrosine (PY20) detecting phosphorylation of the substrate polymer. 1M phosphoric acid was added to terminate the color, the chromogenic substrate (TMB) was tested by spectrophotometry at 450 nm.

[4] = tested on: H460 (human lung cancer cell); test: In vitro anti-tumor cellular activity (MTT), H460; assay type: cell-based; conditions: for IC50: Homo sapiens, read-out: H460 IC50
[5] = tested on: U87MG (Human malignant glioblastoma cells); test: In vitro anti-tumor cellular activity (MTT), U87MG; assay type: cell-based; conditions: for IC50: Homo sapiens, U-87 MG, read-out: U87MG IC50
[6] = tested on: HT-29 (colon cancer cell); test: In vitro anti-tumor cellular activity (MTT), HT-29; assay type: cell-based, human; conditions: for IC50: Homo sapiens, read-out: HT-29 IC50
[7] = tested on: SMMC-7721 (hepatoma cell); test: In vitro anti-tumor cellular activity (MTT), SMMC-7721; assay type: cell-based, human; conditions: for IC50: Homo sapiens, read-out: SMMC-7721 IC50

T1 sequence (P08581 974-1390 limits assumed): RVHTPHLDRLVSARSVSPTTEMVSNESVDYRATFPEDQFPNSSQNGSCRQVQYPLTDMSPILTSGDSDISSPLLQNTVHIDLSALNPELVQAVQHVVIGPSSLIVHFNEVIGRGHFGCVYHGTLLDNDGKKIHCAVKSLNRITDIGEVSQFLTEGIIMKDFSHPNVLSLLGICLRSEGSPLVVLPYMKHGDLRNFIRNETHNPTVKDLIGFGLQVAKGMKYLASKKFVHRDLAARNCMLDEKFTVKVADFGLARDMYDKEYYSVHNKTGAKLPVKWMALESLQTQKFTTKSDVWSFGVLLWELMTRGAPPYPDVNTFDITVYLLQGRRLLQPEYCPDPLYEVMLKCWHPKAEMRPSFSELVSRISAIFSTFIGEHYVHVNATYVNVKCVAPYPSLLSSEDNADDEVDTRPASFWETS

Row | Compound | IC50 ([2]; MTT, 72 hours, MKN-45) [µg/mL] | IC50 [3] [µM] | IC50 ([4]; NCI-H460, MTT, 72 hours, H460) [µg/mL] | IC50 ([5]; MTT, 72 hours, U87MG) [µg/mL] | IC50 ([6]; MTT, 72 hours, HT-29) [µg/mL] | IC50 ([7]; MTT, 72 hours, SMMC-7721) [µg/mL] | other results
1 | COc1cc2c(Oc3ccc(NC(=O)C4(C(=O)Nc5ccc(F)cc5)CC4)cc3F)ccnc2cc1OCCCN1CCOCC1 [Foretinib] |  |  |  |  |  |  | IC50 against a variety of human tumor cell lines [1]: 0.004 µg/mL
2 | COc1cc2c(Oc3ccc(NC(=O)c4cn(-c5ccccc5C(F)(F)F)c5ccccc5c4=O)cc3F)ccnc2cc1OCCCN1CCC(C)CC1 [Example 57, N-(3-fluoro-4-((6-methoxy-7-(3-(4-methylpiperidin-1-yl)propoxy)quinolin-4-yl)oxy)phenyl)-4-oxo-1-(2-(trifluoromethyl)phenyl)-1,4-dihydroquinoline-3-carboxamide] | 0.91 (≈ 1.21 µM) | 1.06 | 1.3 (≈ 1.72 µM) | 1.1 (≈ 1.46 µM) | 0.87 (≈ 1.15 µM) | 0.58 (≈ 0.768 µM) | 
3 | COc1cc2c(Oc3ccc(NC(=O)c4nn(-c5cc(C(F)(F)F)ccc5Cl)c5ccccc5c4=O)cc3F)ccnc2cc1OCCCN1CCN(C)CC1 [Example 23, N-(3-fluoro-4-((6-methoxy-7-(3-(4-methylpiperazin-1-yl)propoxy)quinolin-4-yl)oxy)phenyl)-1-(2-chloro-5-(trifluoromethyl)phenyl)-4-oxo-1,4-dihydrocinnoline-3-carboxamide] | 0.9 (≈ 1.14 µM) | 0.404 | 1 (≈ 1.26 µM) | 1.3 (≈ 1.64 µM) | 0.7 (≈ 0.885 µM) | 1.4 (≈ 1.77 µM) | 
4 | N-(3-fluoro-4-((6-methoxy-7-(3-(4-methylpiperazin-1-yl)propoxy)quinolin-4-yl)oxy)phenyl)-1-(2-(trifluoromethyl)phenyl)-4-oxo-1,4-dihydrocinnoline-3-carboxamide [Example 44] |  |  |  |  |  |  | MKN-45 IC50 ([2]; MTT, 72 hours, MKN-45): 1.8 µg/mL; c-Met IC50 [3]: 1.1 µg/mL; H460 IC50 ([4]; MTT, 72 hours, H460): 1.6 µg/mL; U87MG IC50 ([5]; MTT, 72 hours, U87MG): 0.84 µg/mL; HT-29 IC50 ([6]; MTT, 72 hours, HT-29): 1.2 µg/mL; SMMC-7721 IC50 ([7]; MTT, 72 hours, SMMC-7721): 2.1 µg/mL
5 | COc1cc2c(Oc3ccc(NC(=O)c4nn(-c5ccc(Br)cc5F)c5ccccc5c4=O)cc3F)cnnc2cc1OCCCN1CCOCC1 [Example 68, N-(3-fluoro-4-((6-methoxy-7-(3-(morpholin-4-yl)propoxy)cinnolin-4-yl)oxy)phenyl)-1-(4-bromo-2-fluorophenyl)-4-oxo-1,4-dihydrocinnoline-3-carboxamide] | 2.5 (≈ 3.23 µM) | 1.16 | 1.5 (≈ 1.94 µM) | 1.3 (≈ 1.68 µM) | 2.1 (≈ 2.71 µM) | 2.9 (≈ 3.75 µM) | 
6 | COc1cc2c(Oc3ccc(NC(=O)c4nn(-c5ccc(Br)cc5)c5ccccc5c4=O)cc3F)ccnc2cc1OCCCN1CCOCC1 [Example 39, N-(3-fluoro-4-((6-methoxy-7-(3-(morpholin-4-yl)propoxy)quinolin-4-yl)oxy)phenyl)-1-(4-bromophenyl)-4-oxo-1,4-dihydrocinnoline-3-carboxamide] |  | 1.33 |  |  |  |  | IC50 ([2]; MKN-45, 72 h): 1.4 µg/mL (≈ 1.86 µM); IC50 ([4]; NCI-H460, 72 h): 2.3 µg/mL (≈ 3.05 µM); IC50 ([5]; 72 h): 1.8 µg/mL (≈ 2.39 µM); IC50 ([6]; HT-29, 72 h): 0.87 µg/mL (≈ 1.15 µM); IC50 ([7]; SMMC-7721, 72 h): 2.1 µg/mL (≈ 2.78 µM)
7 | COc1cc2c(Oc3ccc(NC(=O)c4cn(-c5ccccc5Cl)c5ccccc5c4=O)cc3F)ccnc2cc1OCCCN1CCN(C)CC1 [Example 56, N-(3-fluoro-4-((6-methoxy-7-(3-(4-methylpiperazin-1-yl)propoxy)quinolin-4-yl)oxy)phenyl)-1-(2-chlorophenyl)-4-oxo-1,4-dihydroquinoline-3-carboxamide] | 0.21 (≈ 0.291 µM) | 0.138 | 0.75 (≈ 1.04 µM) | 0.12 (≈ 0.166 µM) | 0.2 (≈ 0.277 µM) | 0.74 (≈ 1.02 µM) | 
8 | COc1cc2c(Oc3ccc(NC(=O)c4cn(-c5ccccc5C(F)(F)F)c5ccccc5c4=O)cc3F)ccnc2cc1OCCCN1CCOCC1.Cl.Cl [Example 48, N-(3-fluoro-4-((6-methoxy-7-(3-(morpholin-4-yl)propoxy)quinolin-4-yl)oxy)phenyl)-4-oxo-1-(2-(trifluoromethyl)phenyl)-1,4-dihydroquinoline-3-carboxamide dihydrochloride] | 1.1 | 1.35 | 0.7 | 0.88 | 0.65 | 0.56 | 
9 | COc1cc2c(Oc3ccc(NC(=O)c4nn(-c5ccc(C)cc5C)c5ccccc5c4=O)cc3F)ccnc2cc1OCCCN1CCC(C)CC1 [Example 24, N-(3-fluoro-4-((6-methoxy-7-(3-(4-methylpiperidin-1-yl)propoxy)quinolin-4-yl)oxy)phenyl)-1-(2,4-dimethylphenyl)-4-oxo-1,4-dihydrocinnoline-3-carboxamide] | 0.8 (≈ 1.12 µM) | 1.26 | 1.1 (≈ 1.54 µM) | 2.8 (≈ 3.91 µM) | 1.4 (≈ 1.96 µM) | 0.86 (≈ 1.2 µM) | 
